The test system of this test is Corynebacterium glutamicum strain DSM13994_Hdap_s. The experiment in a line: Screening on LB agar plates containing 4-hydroxydiaminopimelic acid (growth of colonies). As to conditions: 10 g/l in LB agar, observed over 48 hours; UV mutant clone DSM13994_Hdap_s compared to parent DSM13994. It counts as cell-based. The protocol: For screening on colonies that are sensitive to 4-hydroxy-diaminopimelic acid, the strain DSM13994 after UV mutagenesis (Sambrook et al., Molecular Cloning: A Laboratory Manual. 2nd Edition, Cold Spring Harbor, New York, 1989) is plated out on LB agar plates containing 4-hydroxydiaminopimelic acid. The agar plates are supplemented with 10 g/l of 4-hydroxydiaminopimelic acid. The growth of the colonies is observed over 48 hours. At this concentration mutants sensitive to 4-hydroxydiamino-pimelic acid may be differentiated from the unaltered parent strain by a delayed growth. […] The strain is identified as DSM13994_Hdap_s.

On to `N[C@H](CC(O)C[C@H](N)C(=O)O)C(=O)O` (stereo partly shown) [4-hydroxydiaminopimelic acid], for which the “growth of the colonies” value is given as “substantially delayed growth”.

The values are drawn from US20040067561A1, “Process for the production of L-lysine using coryneform bacteria” (priority 2002, published 2004).
